Some results are limits rather than exact numbers.

As a reminder, the IC50 is the concentration at which inhibition is half-maximal.

The first experiment deals with Daudi cells. Kind of experiment: Cell proliferation experiment, Daudi. The experiment is classed as cell-based, human. The note with it: Homo sapiens, Daudi, Daudi cells; read-out: Inhibitory activity IC50 on Daudi. In outline: (§1)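 Viability read by Alamar blue. 72 h treatment, 5-fold dilution series, duplicates; log-phase cells in 96-well plates; IC50 by curve fit.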
With `CNC(=O)c1ccccc1Nc1nc(Nc2ccc(N3CCN(C(=O)N[C@H]4CC[C@@H](NCCOCCC#Cc5ccc6c(c5)CN(C5CCC(=O)NC5=O)C6=O)CC4)CC3)nc2)ncc1Cl` (stereo partly drawn) [UB-181142], the IC50 lay within 100 to 1000 nM.
As for `CNC(=O)c1ccccc1Nc1nc(Nc2ccc(C3CCN(C(=O)N[C@H]4CC[C@@H](NCCC#Cc5ccc6c(c5)CN(C5CCC(=O)NC5=O)C6=O)CC4)CC3)cc2)ncc1Cl` (stereo partly drawn) [UB-181168], the IC50 lay within 10 to 100 nM.
As to `CNC(=O)c1ccccc1Nc1nc(Nc2ccc(N3CCN(C(=O)N[C@H]4CC[C@@H](NCCC#Cc5ccc6c(c5)CN(C5CCC(=O)NC5=O)C6=O)CC4)CC3)nc2)ncc1Cl` (stereo partly drawn) [UB-181169], the IC50 was 100 to 1000 nM.
For the compound `CNC(=O)c1ccccc1Nc1nc(Nc2ccc(N3CCN(C(=O)N[C@H]4CC[C@@H](NCCC#Cc5cccc6c5CN(C5CCC(=O)NC5=O)C6=O)CC4)CC3)nc2)ncc1Cl` (stereo partly drawn) [UB-181173], the IC50 is > 1000 nM.
Consider `CNC(=O)c1ccccc1Nc1nc(Nc2ccc(N3CCN(C(=O)N[C@H]4CC[C@H](NCCC#Cc5ccc6c(c5)CN(C5CCC(=O)NC5=O)C6=O)CC4)CC3)nc2)ncc1Cl` (stereo partly drawn) [UB-181174], for which the IC50 is 10 to 100 nM.
Still for that read-out and setting: as for `CNC(=O)c1ccccc1Nc1nc(Nc2ccc(N3CCN(C(=O)N[C@H]4CC[C@@H](N[C@H]5C[C@H](C#Cc6ccc7c(c6)CN(C6CCC(=O)NC6=O)C7=O)C5)CC4)CC3)cc2)ncc1Cl` (stereo partly drawn) [UB-181181], the figure is > 1000 nM.

For a further experiment, the system named is PC-3. Description: Cell proliferation experiment, PC-3. Type of experiment: cell-based, human. The note with it: Homo sapiens, PC-3, PC-3 cells; read-out: Inhibitory activity IC50 on PC-3. In outline:
as §1
For `CNC(=O)c1ccccc1Nc1nc(Nc2ccc(N3CCN(C(=O)N[C@H]4CC[C@@H](NCCOCCC#Cc5ccc6c(c5)CN(C5CCC(=O)NC5=O)C6=O)CC4)CC3)nc2)ncc1Cl` (stereo partly drawn) [UB-181142], the IC50 was 100 to 1000 nM.
Take `CNC(=O)c1ccccc1Nc1nc(Nc2ccc(C3CCN(C(=O)N[C@H]4CC[C@@H](NCCC#Cc5ccc6c(c5)CN(C5CCC(=O)NC5=O)C6=O)CC4)CC3)cc2)ncc1Cl` (stereo partly drawn) [UB-181168]: the IC50 was 100 to 1000 nM.
On to `CNC(=O)c1ccccc1Nc1nc(Nc2ccc(N3CCN(C(=O)N[C@H]4CC[C@@H](NCCC#Cc5ccc6c(c5)CN(C5CCC(=O)NC5=O)C6=O)CC4)CC3)nc2)ncc1Cl` (stereo partly drawn) [UB-181169], for which the IC50 fell in the range of 10 to 100 nM.
Same read-out and setting: as for `CNC(=O)c1ccccc1Nc1nc(Nc2ccc(N3CCN(C(=O)N[C@H]4CC[C@@H](NCCC#Cc5cccc6c5CN(C5CCC(=O)NC5=O)C6=O)CC4)CC3)nc2)ncc1Cl` (stereo partly drawn) [UB-181173], the figure is 10 to 100 nM; as for `CNC(=O)c1ccccc1Nc1nc(Nc2ccc(N3CCN(C(=O)N[C@H]4CC[C@H](NCCC#Cc5ccc6c(c5)CN(C5CCC(=O)NC5=O)C6=O)CC4)CC3)nc2)ncc1Cl` (stereo partly drawn) [UB-181174], 10 to 100 nM; as for `CNC(=O)c1ccccc1Nc1nc(Nc2ccc(N3CCN(C(=O)N[C@H]4CC[C@@H](N[C@H]5C[C@H](C#Cc6ccc7c(c6)CN(C6CCC(=O)NC6=O)C7=O)C5)CC4)CC3)cc2)ncc1Cl` (stereo partly drawn) [UB-181181], 10 to 100 nM.

For a further experiment, the system named is MDA-MB-231 cells. Description: Cell proliferation experiment, MDA-MB-231. Particulars: Homo sapiens, MDA-MB-231, MDA-MB-231 cells; read-out: Inhibitory activity IC50 on MDA-MB-231. The experiment is classed as cell-based, human. In outline:
as §1
On to `CNC(=O)c1ccccc1Nc1nc(Nc2ccc(N3CCN(C(=O)N[C@H]4CC[C@@H](NCCOCCC#Cc5ccc6c(c5)CN(C5CCC(=O)NC5=O)C6=O)CC4)CC3)nc2)ncc1Cl` (stereo partly drawn) [UB-181142], for which the IC50 fell in the range of 100 to 1000 nM.
Consider `CNC(=O)c1ccccc1Nc1nc(Nc2ccc(C3CCN(C(=O)N[C@H]4CC[C@@H](NCCC#Cc5ccc6c(c5)CN(C5CCC(=O)NC5=O)C6=O)CC4)CC3)cc2)ncc1Cl` (stereo partly drawn) [UB-181168], for which the IC50 was 100 to 1000 nM.
As for `CNC(=O)c1ccccc1Nc1nc(Nc2ccc(N3CCN(C(=O)N[C@H]4CC[C@@H](NCCC#Cc5ccc6c(c5)CN(C5CCC(=O)NC5=O)C6=O)CC4)CC3)nc2)ncc1Cl` (stereo partly drawn) [UB-181169], the half-inhibitory concentration (IC50) was > 1000 nM.
On to `CNC(=O)c1ccccc1Nc1nc(Nc2ccc(N3CCN(C(=O)N[C@H]4CC[C@@H](NCCC#Cc5cccc6c5CN(C5CCC(=O)NC5=O)C6=O)CC4)CC3)nc2)ncc1Cl` (stereo partly drawn) [UB-181173], for which the IC50 is > 1000 nM.
Same read-out and setting: as for `CNC(=O)c1ccccc1Nc1nc(Nc2ccc(N3CCN(C(=O)N[C@H]4CC[C@H](NCCC#Cc5ccc6c(c5)CN(C5CCC(=O)NC5=O)C6=O)CC4)CC3)nc2)ncc1Cl` (stereo partly drawn) [UB-181174], the figure is > 1000 nM; as for `CNC(=O)c1ccccc1Nc1nc(Nc2ccc(N3CCN(C(=O)N[C@H]4CC[C@@H](N[C@H]5C[C@H](C#Cc6ccc7c(c6)CN(C6CCC(=O)NC6=O)C7=O)C5)CC4)CC3)cc2)ncc1Cl` (stereo partly drawn) [UB-181181], > 1000 nM.

The next experiment relates to MV4;11 cells. Kind of experiment: Cell proliferation experiment (Alamar blue, 72 h), MV4;11. The experiment is classed as cell-based, human. The note with it: Homo sapiens, MV4-11, MV4;11 cells; read-out: Inhibitory activity IC50 on MV4;11. Put shortly: as §1
Background: Alamar Blue is a resazurin reagent that responds to reducing activity.
Take `CNC(=O)c1ccccc1Nc1nc(Nc2ccc(N3CCN(C(=O)N[C@H]4CC[C@@H](NCCOCCC#Cc5ccc6c(c5)CN(C5CCC(=O)NC5=O)C6=O)CC4)CC3)nc2)ncc1Cl` (stereo partly drawn) [UB-181142]: the IC50 was < 10 nM.
With `CNC(=O)c1ccccc1Nc1nc(Nc2ccc(C3CCN(C(=O)N[C@H]4CC[C@@H](NCCC#Cc5ccc6c(c5)CN(C5CCC(=O)NC5=O)C6=O)CC4)CC3)cc2)ncc1Cl` (stereo partly drawn) [UB-181168], the IC50 was < 10 nM.
Regarding `CNC(=O)c1ccccc1Nc1nc(Nc2ccc(N3CCN(C(=O)N[C@H]4CC[C@@H](NCCC#Cc5ccc6c(c5)CN(C5CCC(=O)NC5=O)C6=O)CC4)CC3)nc2)ncc1Cl` (stereo partly drawn) [UB-181169], the IC50 was 10 to 100 nM.
The same measure, in the same setting: as for `CNC(=O)c1ccccc1Nc1nc(Nc2ccc(N3CCN(C(=O)N[C@H]4CC[C@@H](NCCC#Cc5cccc6c5CN(C5CCC(=O)NC5=O)C6=O)CC4)CC3)nc2)ncc1Cl` (stereo partly drawn) [UB-181173], the figure is 10 to 100 nM; as for `CNC(=O)c1ccccc1Nc1nc(Nc2ccc(N3CCN(C(=O)N[C@H]4CC[C@H](NCCC#Cc5ccc6c(c5)CN(C5CCC(=O)NC5=O)C6=O)CC4)CC3)nc2)ncc1Cl` (stereo partly drawn) [UB-181174], 10 to 100 nM; as for `CNC(=O)c1ccccc1Nc1nc(Nc2ccc(N3CCN(C(=O)N[C@H]4CC[C@@H](N[C@H]5C[C@H](C#Cc6ccc7c(c6)CN(C6CCC(=O)NC6=O)C7=O)C5)CC4)CC3)cc2)ncc1Cl` (stereo partly drawn) [UB-181181], 10 to 100 nM.

The subject of a further experiment is NCIH82 cells. Kind of experiment: Cell proliferation experiment, NCI-H82. The experiment is classed as cell-based, human. Particulars: Homo sapiens, NCI-H82, NCI-H82 cells; read-out: Inhibitory activity IC50 on NCI-H82. In outline:
as §1
`CNC(=O)c1ccccc1Nc1nc(Nc2ccc(N3CCN(C(=O)N[C@H]4CC[C@@H](NCCOCCC#Cc5ccc6c(c5)CN(C5CCC(=O)NC5=O)C6=O)CC4)CC3)nc2)ncc1Cl` (stereo partly drawn) [UB-181142]: the IC50 lay in the range of 100 to 1000 nM.
On the same count and under the same terms, the value for `CNC(=O)c1ccccc1Nc1nc(Nc2ccc(C3CCN(C(=O)N[C@H]4CC[C@@H](NCCC#Cc5ccc6c(c5)CN(C5CCC(=O)NC5=O)C6=O)CC4)CC3)cc2)ncc1Cl` (stereo partly drawn) [UB-181168] was 100 to 1000 nM.
The same measure, in the same setting: the value for `CNC(=O)c1ccccc1Nc1nc(Nc2ccc(N3CCN(C(=O)N[C@H]4CC[C@@H](NCCC#Cc5ccc6c(c5)CN(C5CCC(=O)NC5=O)C6=O)CC4)CC3)nc2)ncc1Cl` (stereo partly drawn) [UB-181169] was 100 to 1000 nM.
As for `CNC(=O)c1ccccc1Nc1nc(Nc2ccc(N3CCN(C(=O)N[C@H]4CC[C@@H](NCCC#Cc5cccc6c5CN(C5CCC(=O)NC5=O)C6=O)CC4)CC3)nc2)ncc1Cl` (stereo partly drawn) [UB-181173], the half-maximal inhibitory concentration (IC50) is > 1000 nM.
For the compound `CNC(=O)c1ccccc1Nc1nc(Nc2ccc(N3CCN(C(=O)N[C@H]4CC[C@H](NCCC#Cc5ccc6c(c5)CN(C5CCC(=O)NC5=O)C6=O)CC4)CC3)nc2)ncc1Cl` (stereo partly drawn) [UB-181174], the IC50 is > 1000 nM.
Still for that read-out and setting: the value for `CNC(=O)c1ccccc1Nc1nc(Nc2ccc(N3CCN(C(=O)N[C@H]4CC[C@@H](N[C@H]5C[C@H](C#Cc6ccc7c(c6)CN(C6CCC(=O)NC6=O)C7=O)C5)CC4)CC3)cc2)ncc1Cl` (stereo partly drawn) [UB-181181] was 100 to 1000 nM.

For the origin of these results see patent US20230210999A1, “TARGETED PROTEASE DEGRADATION (TED) PLATFORM” (EUBULUS BIOTHERAPEUTICS INC., priority 2020, published 2023).
